From PMC8426238, “Synthesis and preclinical evaluation of [^11C]MTP38 as a novel PET ligand for phosphodiesterase 7 in the brain” (European Journal of Nuclear Medicine and Molecular Imaging, 2021)

Columns and labels:
Adenosine A3 = target: T1, Adenosine A3 (Homo sapiens, UniProt P0DMS8); assay: off-target screen panel; assay type: binding; conditions: Human recombinant, [^125I]AB-MECA
T1 construct: purchased Eurofins Panlabs Discovery Services (Taiwan)

Adrenergic α1B = target: T2, Adrenergic α1B (Rattus norvegicus, UniProt P15823); assay: off-target screen panel; assay type: binding; conditions: Rat liver, [^3H]Prazosin
T2 construct: purchased Eurofins Panlabs Discovery Services (Taiwan)
T2 sequence (P15823 whole entry): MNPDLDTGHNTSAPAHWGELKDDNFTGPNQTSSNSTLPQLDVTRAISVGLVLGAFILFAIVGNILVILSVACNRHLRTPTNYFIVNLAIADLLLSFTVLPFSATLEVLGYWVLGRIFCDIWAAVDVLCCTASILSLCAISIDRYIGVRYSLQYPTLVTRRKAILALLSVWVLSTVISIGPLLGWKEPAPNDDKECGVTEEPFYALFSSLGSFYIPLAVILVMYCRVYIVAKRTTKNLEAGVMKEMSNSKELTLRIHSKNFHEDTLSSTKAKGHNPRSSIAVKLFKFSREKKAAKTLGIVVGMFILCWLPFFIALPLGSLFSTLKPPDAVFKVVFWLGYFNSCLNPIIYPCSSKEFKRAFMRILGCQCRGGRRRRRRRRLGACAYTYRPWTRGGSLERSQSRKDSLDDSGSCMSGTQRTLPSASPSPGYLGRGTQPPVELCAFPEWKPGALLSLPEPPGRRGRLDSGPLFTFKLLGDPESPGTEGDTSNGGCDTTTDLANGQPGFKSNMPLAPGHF

Adrenergic β2 = target: T3, Adrenergic β2 (Homo sapiens, UniProt P07550); assay: off-target screen panel; assay type: binding; conditions: Human recombinant, [^3H]CGP-12177
T3 construct: purchased Eurofins Panlabs Discovery Services (Taiwan)

Androgen (Testosterone) = target: T4, Androgen (Testosterone) (Homo sapiens, UniProt P10275); assay: off-target screen panel; assay type: binding; conditions: Human LNCaP clone, [^3H]Methyltrienolone
T4 construct: purchased Eurofins Panlabs Discovery Services (Taiwan)

[1] = tested on: Calcium Channel L-Type, Benzothiazepine; assay: off-target screen panel; assay type: binding; conditions: Rat brain, [^3H]Diltiazem
Calcium Channel N-Type = target: T5, Calcium Channel N-Type (Rattus norvegicus, UniProt Q02294); assay: off-target screen panel; assay type: binding; conditions: read-out: Inhibition (%) at 1 μM
T5 construct: purchased Eurofins Panlabs Discovery Services (Taiwan)

Dopamine D1 = target: T6, Dopamine D1 (Homo sapiens, UniProt P21728); assay: off-target screen panel; assay type: binding; conditions: Human recombinant, [^3H]SCH-23390
T6 construct: purchased Eurofins Panlabs Discovery Services (Taiwan)

Dopamine D4.2 = target: T7, Dopamine D4.2 (Homo sapiens, UniProt P21917, DEL265-296); assay: off-target screen panel; assay type: binding; conditions: Human recombinant, [^3H]Spiperone
T7 construct: purchased Eurofins Panlabs Discovery Services (Taiwan)

Endothelin ETA = target: T8, Endothelin ETA (Homo sapiens, UniProt P25101); assay: off-target screen panel; assay type: binding; conditions: Human recombinant, [^125I]Endothelin-1
T8 construct: purchased Eurofins Panlabs Discovery Services (Taiwan)

GABAA, Muscimol, Central = assay: off-target screen panel; assay type: binding; conditions: Rat brain (minus cerebellum), [^3H]Muscimol
GABAB1A = target: T9, GABAB1A (Homo sapiens, UniProt Q9UBS5); assay: off-target screen panel; assay type: binding; conditions: Human recombinant, [^3H]CGP-54626
T9 construct: purchased Eurofins Panlabs Discovery Services (Taiwan)

Glucocorticoid = target: T10, Glucocorticoid (Homo sapiens, UniProt P04150); assay: off-target screen panel; assay type: binding; conditions: Human recombinant, [^3H]Dexamethasone
T10 construct: purchased Eurofins Panlabs Discovery Services (Taiwan)

Histamine H1 = target: T11, Histamine H1 (Homo sapiens, UniProt P35367); assay: off-target screen panel; assay type: binding; conditions: Human recombinant, [^3H]Pyrilamine
T11 construct: purchased Eurofins Panlabs Discovery Services (Taiwan)
T11 sequence (P35367 whole entry): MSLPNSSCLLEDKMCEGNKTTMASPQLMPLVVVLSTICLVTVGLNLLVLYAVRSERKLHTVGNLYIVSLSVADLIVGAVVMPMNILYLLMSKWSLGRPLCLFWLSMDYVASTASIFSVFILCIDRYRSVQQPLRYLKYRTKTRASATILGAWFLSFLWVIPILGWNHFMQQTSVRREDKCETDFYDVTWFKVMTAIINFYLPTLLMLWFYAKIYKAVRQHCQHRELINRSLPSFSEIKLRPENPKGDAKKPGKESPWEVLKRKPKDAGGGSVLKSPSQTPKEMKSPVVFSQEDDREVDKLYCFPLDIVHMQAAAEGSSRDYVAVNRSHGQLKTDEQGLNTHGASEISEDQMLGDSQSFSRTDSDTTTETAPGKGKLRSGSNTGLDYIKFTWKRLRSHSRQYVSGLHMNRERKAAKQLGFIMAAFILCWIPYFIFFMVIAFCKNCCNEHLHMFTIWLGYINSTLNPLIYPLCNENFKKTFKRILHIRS

Histamine H3 = target: T12, Histamine H3 (Homo sapiens, UniProt Q9Y5N1); assay: off-target screen panel; assay type: binding; conditions: Human recombinant, [^3H]N-α-Methylhistamine
T12 construct: purchased Eurofins Panlabs Discovery Services (Taiwan)
T12 sequence (Q9Y5N1 whole entry): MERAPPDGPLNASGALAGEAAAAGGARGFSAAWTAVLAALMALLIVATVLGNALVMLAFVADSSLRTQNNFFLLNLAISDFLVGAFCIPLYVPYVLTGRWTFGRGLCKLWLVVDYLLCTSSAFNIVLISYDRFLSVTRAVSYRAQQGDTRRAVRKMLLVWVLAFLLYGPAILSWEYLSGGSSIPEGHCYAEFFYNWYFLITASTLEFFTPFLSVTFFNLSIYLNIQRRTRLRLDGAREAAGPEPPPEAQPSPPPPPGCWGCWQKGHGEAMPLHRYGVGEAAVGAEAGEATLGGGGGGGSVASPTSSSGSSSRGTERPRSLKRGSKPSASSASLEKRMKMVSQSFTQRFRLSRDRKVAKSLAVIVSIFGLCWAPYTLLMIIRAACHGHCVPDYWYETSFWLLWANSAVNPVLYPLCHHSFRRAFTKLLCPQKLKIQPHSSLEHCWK

Imidazoline I2, Central = assay: off-target screen panel; assay type: binding; conditions: Rat cerebral cortex, [^3H]Idazoxan
[2] = target: T13, Leukotriene, Cysteinyl CysLT1 (Homo sapiens, UniProt Q9Y271); assay: off-target screen panel; assay type: binding; conditions: Human recombinant, [^3H]LTD4
T13 construct: purchased Eurofins Panlabs Discovery Services (Taiwan)

Muscarinic M1 = target: T14, Muscarinic M1 (Homo sapiens, UniProt P11229); assay: off-target screen panel; assay type: binding; conditions: Human recombinant, [^3H]N-Methylscopolamine
T14 construct: purchased Eurofins Panlabs Discovery Services (Taiwan)
T14 sequence (P11229 whole entry): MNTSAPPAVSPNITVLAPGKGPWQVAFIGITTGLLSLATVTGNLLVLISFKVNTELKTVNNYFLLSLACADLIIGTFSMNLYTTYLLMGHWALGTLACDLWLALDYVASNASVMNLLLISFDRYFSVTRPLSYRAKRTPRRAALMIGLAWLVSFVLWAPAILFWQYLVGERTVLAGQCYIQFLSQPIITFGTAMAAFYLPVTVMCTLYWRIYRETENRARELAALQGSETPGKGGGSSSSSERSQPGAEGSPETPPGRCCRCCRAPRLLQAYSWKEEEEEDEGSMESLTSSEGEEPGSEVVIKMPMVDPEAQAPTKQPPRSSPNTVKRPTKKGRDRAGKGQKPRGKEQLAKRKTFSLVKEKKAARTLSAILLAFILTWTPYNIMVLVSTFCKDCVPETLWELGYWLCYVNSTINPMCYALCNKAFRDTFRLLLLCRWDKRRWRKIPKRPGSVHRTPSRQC

Neuropeptide Y Y2 = target: T15, Neuropeptide Y Y2 (Homo sapiens, UniProt P49146); assay: off-target screen panel; assay type: binding; conditions: Human KAN-TS cells, [^125I]Peptide YY
T15 construct: purchased Eurofins Panlabs Discovery Services (Taiwan)

Opiate δ1 (OP1, DOP) = target: T16, Opiate δ1 (OP1, DOP) (Homo sapiens, UniProt P41143); assay: off-target screen panel; assay type: binding; conditions: Human recombinant, [^3H]Naltrindole
T16 construct: purchased Eurofins Panlabs Discovery Services (Taiwan)

Phorbol Ester = assay: off-target screen panel; assay type: binding; conditions: Mouse brain, [^3H]PDBu
hERG potassium channel = target: T17, hERG potassium channel (Homo sapiens, UniProt Q12809); assay: off-target screen panel; assay type: binding; conditions: human recombinant hERG potassium channel, probe [^3H]Astemizole
T17 construct: purchased Eurofins Panlabs Discovery Services (Taiwan)
T17 sequence (Q12809 whole entry): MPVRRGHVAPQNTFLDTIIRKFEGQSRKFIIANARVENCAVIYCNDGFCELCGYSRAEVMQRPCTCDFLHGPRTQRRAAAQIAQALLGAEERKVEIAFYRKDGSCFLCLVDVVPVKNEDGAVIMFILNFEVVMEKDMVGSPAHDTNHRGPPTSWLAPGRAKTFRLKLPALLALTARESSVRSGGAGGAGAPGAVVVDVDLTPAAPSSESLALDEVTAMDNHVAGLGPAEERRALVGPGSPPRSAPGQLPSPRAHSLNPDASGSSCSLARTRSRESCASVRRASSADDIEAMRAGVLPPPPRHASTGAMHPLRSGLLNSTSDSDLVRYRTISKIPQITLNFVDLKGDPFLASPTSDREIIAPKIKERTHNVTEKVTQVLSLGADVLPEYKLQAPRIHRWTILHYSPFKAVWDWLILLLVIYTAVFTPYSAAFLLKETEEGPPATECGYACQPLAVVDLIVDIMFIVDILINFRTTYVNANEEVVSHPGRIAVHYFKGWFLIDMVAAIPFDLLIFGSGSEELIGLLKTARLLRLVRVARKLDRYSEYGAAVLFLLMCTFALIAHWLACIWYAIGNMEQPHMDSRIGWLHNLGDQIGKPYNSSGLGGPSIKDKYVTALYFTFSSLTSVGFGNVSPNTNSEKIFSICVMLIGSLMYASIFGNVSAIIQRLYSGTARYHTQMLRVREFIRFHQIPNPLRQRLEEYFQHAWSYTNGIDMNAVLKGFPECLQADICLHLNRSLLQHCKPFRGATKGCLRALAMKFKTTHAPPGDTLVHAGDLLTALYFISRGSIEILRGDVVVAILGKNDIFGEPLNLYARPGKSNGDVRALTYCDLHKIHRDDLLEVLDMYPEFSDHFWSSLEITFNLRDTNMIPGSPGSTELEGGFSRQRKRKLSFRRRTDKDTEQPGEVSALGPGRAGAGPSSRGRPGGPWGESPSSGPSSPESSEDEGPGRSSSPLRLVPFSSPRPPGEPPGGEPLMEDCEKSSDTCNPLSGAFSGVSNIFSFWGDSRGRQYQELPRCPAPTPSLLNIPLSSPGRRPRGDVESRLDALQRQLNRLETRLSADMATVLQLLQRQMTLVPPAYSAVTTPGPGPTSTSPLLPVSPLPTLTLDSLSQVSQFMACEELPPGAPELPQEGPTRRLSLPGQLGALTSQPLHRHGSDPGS

Prostanoid EP4 = target: T18, Prostanoid EP4 (Homo sapiens, UniProt P35408); assay: off-target screen panel; assay type: binding; conditions: Human recombinant, [^3H]Prostaglandin E2 (PGE2)
T18 construct: purchased Eurofins Panlabs Discovery Services (Taiwan)

Purinergic P2X = assay: off-target screen panel; assay type: binding; conditions: Rabbit urinary bladder, [^3H]α, β-Methylene-ATP
Purinergic P2Y = assay: off-target screen panel; assay type: binding; conditions: Rat brain, [^35S]ATP-αS
PDE4 = assay: off-target screen panel; assay type: binding; conditions: Rat brain, [^3H]Rolipram
[3] = target: T19, Serotonin (5-Hydroxytryptamine) 5-HT3 (Homo sapiens, UniProt P46098); assay: off-target screen panel; assay type: binding; conditions: Human recombinant, [^3H]GR-65630
T19 construct: purchased Eurofins Panlabs Discovery Services (Taiwan)
T19 sequence (P46098 24-478): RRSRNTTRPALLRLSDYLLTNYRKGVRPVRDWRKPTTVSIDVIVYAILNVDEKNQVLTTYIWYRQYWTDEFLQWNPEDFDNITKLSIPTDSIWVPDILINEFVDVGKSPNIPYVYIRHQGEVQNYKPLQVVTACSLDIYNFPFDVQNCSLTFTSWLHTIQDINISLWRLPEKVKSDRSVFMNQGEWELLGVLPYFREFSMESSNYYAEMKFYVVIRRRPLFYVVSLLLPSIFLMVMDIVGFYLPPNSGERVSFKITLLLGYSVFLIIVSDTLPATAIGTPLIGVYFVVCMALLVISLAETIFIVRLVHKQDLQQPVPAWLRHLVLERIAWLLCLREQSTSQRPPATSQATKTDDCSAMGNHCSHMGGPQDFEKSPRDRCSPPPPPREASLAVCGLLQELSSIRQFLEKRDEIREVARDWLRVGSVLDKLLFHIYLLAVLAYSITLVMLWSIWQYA

Sigma σ1 = target: T20, Sigma σ1 (Homo sapiens, UniProt Q99720); assay: off-target screen panel; assay type: binding; conditions: Human Jurkat cells, [^3H]Haloperidol
T20 construct: purchased Eurofins Panlabs Discovery Services (Taiwan)
T20 sequence (Q99720 whole entry): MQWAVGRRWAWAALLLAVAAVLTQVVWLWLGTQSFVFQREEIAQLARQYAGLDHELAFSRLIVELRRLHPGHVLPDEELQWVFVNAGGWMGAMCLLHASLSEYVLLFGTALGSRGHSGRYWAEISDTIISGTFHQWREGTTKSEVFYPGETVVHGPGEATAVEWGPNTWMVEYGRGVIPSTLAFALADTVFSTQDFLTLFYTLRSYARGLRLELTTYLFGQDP

Thyroid Hormone = assay: off-target screen panel; assay type: binding; conditions: Rat liver, [^125I]Triiodothyronine
[4] = target: T21, Transporter, Norepinephrine (NET) (Homo sapiens, UniProt P23975); assay: off-target screen panel; assay type: binding; conditions: Human recombinant, [^125I]RTI-55
T21 construct: purchased Eurofins Panlabs Discovery Services (Taiwan)

[5] = target: T22, Transporter, Serotonin (5-Hydroxytryptamine) (SERT) (Homo sapiens, UniProt P31645); assay: off-target screen panel; assay type: binding; conditions: Human recombinant, [^3H]Paroxetine
T22 construct: purchased Eurofins Panlabs Discovery Services (Taiwan)
T22 sequence (P31645 whole entry): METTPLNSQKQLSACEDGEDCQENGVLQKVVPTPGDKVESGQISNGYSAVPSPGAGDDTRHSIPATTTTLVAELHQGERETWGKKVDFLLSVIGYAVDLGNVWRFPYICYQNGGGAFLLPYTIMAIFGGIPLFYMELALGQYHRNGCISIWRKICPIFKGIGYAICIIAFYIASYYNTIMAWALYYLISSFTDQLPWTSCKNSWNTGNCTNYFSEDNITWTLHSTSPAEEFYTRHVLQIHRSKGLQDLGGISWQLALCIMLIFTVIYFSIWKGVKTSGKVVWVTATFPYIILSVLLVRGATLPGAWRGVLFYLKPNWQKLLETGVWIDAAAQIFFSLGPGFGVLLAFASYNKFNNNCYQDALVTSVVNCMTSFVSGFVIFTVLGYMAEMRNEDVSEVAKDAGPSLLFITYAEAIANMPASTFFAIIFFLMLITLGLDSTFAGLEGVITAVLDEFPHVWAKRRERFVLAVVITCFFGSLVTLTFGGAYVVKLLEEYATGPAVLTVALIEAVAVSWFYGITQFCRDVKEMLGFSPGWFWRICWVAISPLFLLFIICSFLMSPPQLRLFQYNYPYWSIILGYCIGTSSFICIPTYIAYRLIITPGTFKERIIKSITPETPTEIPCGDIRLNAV

PDE7 = assay: In vitro autoradiography of monkey brain sections with [^11C]MTP38; assay type: binding, rhesus monkeys; conditions: [^11C]MTP38 2 nM, unlabeled MTP38 10 μM
Description: In vitro autoradiography was performed using 20-μm-thick fresh-frozen brain sections derived from Sprague-Dawley rats and rhesus monkeys. The sections were preincubated for 10 min in 50 mM Tris-HCl buffer (pH 7.4) at room temperature. These samples were then incubated for 60 min at room temperature in fresh buffer containing [^11C]MTP38 (2 nM) with or without unlabeled MTP38 (10 μM), MTP-X (4 μM), or MT-3014 (40 nM). The concentrations of MTP-X and MT-3014 were more than 400-fold of reported IC50 values of these agents. After the incubation, the brain sections were immersed twice in cold buffer for 3 min, dipped in cold distilled water for 10 s, and dried with warm airflow. Then the sections were contacted with imaging plates (BAS-MS2025, Fujifilm, Tokyo, Japan) for 60 min. The imaging plates were scanned with an imaging plate reader (BAS5000, Fujifilm, Tokyo, Japan), and the images were analyzed with the MultiGuage software (ver. 3.0, Fujifilm, Tokyo, Japan).

Solubility = assay type: physicochemical

T1 sequence (P0DMS8 whole entry): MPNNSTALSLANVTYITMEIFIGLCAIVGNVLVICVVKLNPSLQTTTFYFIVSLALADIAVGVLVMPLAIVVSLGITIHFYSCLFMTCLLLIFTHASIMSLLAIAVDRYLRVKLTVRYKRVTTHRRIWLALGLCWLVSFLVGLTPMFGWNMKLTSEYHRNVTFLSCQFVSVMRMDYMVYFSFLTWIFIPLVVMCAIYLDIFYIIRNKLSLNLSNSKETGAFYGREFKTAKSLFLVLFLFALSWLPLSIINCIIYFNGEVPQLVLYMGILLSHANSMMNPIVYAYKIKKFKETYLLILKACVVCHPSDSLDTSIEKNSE

## C[C@@H]1CC[C@H](C)N(c2nnc3c(N)ncc(C#N)n23)C1 (relative stereo) [MTP38, 8-amino-3-(2S*,5R*-dimethyl-1-piperidyl)-[1,2,4]triazolo[4,3-a]pyrazine-5-carbonitrile]
Adenosine A3
  inhibition at 1 µM: 10%
Adrenergic α1B
  inhibition at 1 µM: -3%
Adrenergic β2
  inhibition at 1 µM: -14%
Androgen (Testosterone)
  inhibition at 1 µM: 1%
[1]
  Inhibition (%) at 1 μM: 16%
Calcium Channel N-Type
  inhibition at 1 µM: 1%
Dopamine D1
  inhibition at 1 µM: -14%
Dopamine D4.2
  inhibition at 1 µM: -3%
Endothelin ETA
  inhibition at 1 µM: -10%
GABAA, Muscimol, Central
  Inhibition (%) at 1 μM: -10%
GABAB1A
  inhibition at 1 µM: -10%
Glucocorticoid
  inhibition at 1 µM: 0%
Histamine H1
  inhibition at 1 µM: -20%
Histamine H3
  inhibition at 1 µM: 9%
Imidazoline I2, Central
  Inhibition (%) at 1 μM: -8%
[2]
  inhibition at 1 µM: 4%
Muscarinic M1
  inhibition at 1 µM: -20%
Neuropeptide Y Y2
  inhibition at 1 µM: 6%
Opiate δ1 (OP1, DOP)
  inhibition at 1 µM: -4%
Phorbol Ester
  Inhibition (%) at 1 μM: -7%
hERG potassium channel
  inhibition at 1 µM: 17%
Prostanoid EP4
  inhibition at 1 µM: 8%
Purinergic P2X
  Inhibition (%) at 1 μM: -3%
Purinergic P2Y
  Inhibition (%) at 1 μM: -20%
PDE4
  Inhibition (%) at 1 μM: 74%
[3]
  inhibition at 1 µM: -11%
Sigma σ1
  inhibition at 1 µM: 6%
Thyroid Hormone
  Inhibition (%) at 1 μM: 7%
[4]
  inhibition at 1 µM: 6%
[5]
  inhibition at 1 µM: -14%
PDE7
  effect of blocker on striatal radioactivity of [^11C]MTP38: reduced the striatal radioactivity
Solubility
  solubility: low solubility
